Like-named read-outs stand apart in the source and are kept apart here.
Key:
IDO [1] = biological target: T1, IDO (Homo sapiens, UniProt P14902); assay: hIDO biochemical coupled assay; conditions: 45 μM L-tryptophan, read-out: hIDO biochemical assay pIC50 (converted)
TDO = TDO (Homo sapiens, UniProt P48775); assay: A172 kynurenine cell-based assay; parameters: This assay utilised cancer cells which expressed either TDO or IDO; endogenous in cells; host or cells: A172 (human glioblastoma); conditions: A172 human glioblastoma cells, 48 hours, read-out: A172 Kynurenine cell based assay pIC50 (converted)
Method in brief: (§1)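 First, A172 or SKOV3 cells were seeded in phenol red-free RPMI, 10% FCS, 2 mM L-glutamine, 500 μM L-tryptophan; SKOV3 received 500 ng/ml IFN-γ for IDO induction. Next came compound exposure, 48 hours, 37° C. Finally, cells were spun out, supernatant treated with Erhlich's reagent, absorbance read at 490 nm.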

IDO [2] = biological target: T1, IDO; assay: SKOV3 kynurenine cell-based assay (IDO induced by IFN-γ); parameters: IDO expression was induced in the SKOV3 cells by the addition of 500 ng/ml IFN-γ; endogenous in cells; host or cells: SKOV3 (human ovarian adenocarcinoma), induced with IFN-γ; conditions: 48 hours, read-out: SKOV3 Kynurenine cell based assay pIC50 (converted)
Method in brief: as §1

[3] = SKOV3 human ovarian adenocarcinoma cells, 500 ng/ml IFN-γ, 500 μM L-tryptophan

Sequence of TDO (P48775 whole entry): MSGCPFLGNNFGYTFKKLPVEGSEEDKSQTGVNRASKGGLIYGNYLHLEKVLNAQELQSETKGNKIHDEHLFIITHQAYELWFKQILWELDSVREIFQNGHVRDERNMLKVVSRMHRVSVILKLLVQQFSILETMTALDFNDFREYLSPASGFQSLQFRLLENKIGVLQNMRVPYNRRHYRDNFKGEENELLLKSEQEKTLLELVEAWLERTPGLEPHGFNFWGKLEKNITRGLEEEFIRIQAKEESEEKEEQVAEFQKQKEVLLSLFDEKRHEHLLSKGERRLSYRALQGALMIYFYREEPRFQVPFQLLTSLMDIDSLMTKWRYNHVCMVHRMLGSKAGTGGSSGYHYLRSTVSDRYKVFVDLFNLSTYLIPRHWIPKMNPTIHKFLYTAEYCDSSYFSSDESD
T1 sequence (P14902 whole entry): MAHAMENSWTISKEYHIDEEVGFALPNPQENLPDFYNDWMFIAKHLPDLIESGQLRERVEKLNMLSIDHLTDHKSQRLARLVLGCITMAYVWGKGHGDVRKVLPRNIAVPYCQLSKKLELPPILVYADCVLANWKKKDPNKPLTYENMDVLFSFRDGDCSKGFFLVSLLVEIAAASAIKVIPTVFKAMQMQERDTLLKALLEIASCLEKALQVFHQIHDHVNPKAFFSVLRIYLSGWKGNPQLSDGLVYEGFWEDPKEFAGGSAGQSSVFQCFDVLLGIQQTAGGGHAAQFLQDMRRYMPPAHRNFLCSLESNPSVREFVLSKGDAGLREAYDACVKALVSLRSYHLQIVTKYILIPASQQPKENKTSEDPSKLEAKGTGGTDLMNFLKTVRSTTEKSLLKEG

IC50 (IDO [1]) [µM]	IC50 (TDO; 500 μM L-tryptophan) [µM]	IC50 (TDO) [µM]	IC50 (IDO [2]; SKOV3 cells, IDO induced by 500 ng/ml IFN-γ) [µM]	IC50 (IDO [2]; [3]) [µM]	IC50 (IDO [1]; 17 minutes, room temperature) [µM]	SMILES
191	< 3.16	0.24	12.3	3.24 to 31.6		CC(=O)NC1CCC(c2cc(Cl)cc3[nH]ncc23)CC1 (mixture of isomers) [Compound 155, N-(4-(6-chloro-1H-indazol-4-yl)cyclohexyl) acetamide]
	< 3.16			> 100		CC(C)(O)C(=O)N1CCC(c2cc(Cl)cc3[nH]ncc23)CC1 [Compound 191]
	< 3.16			3.24 to 31.6		CS(=O)(=O)NC1CCN(c2cc(Cl)cc3[nH]ncc23)C1 (stereo not shown) [Compound 193]
	3.24 to 31.6			3.24 to 31.6		CS(=O)(=O)N1CCN(c2cc(C#N)cc3[nH]ncc23)CC1 [Compound 194]
	< 3.16			3.24 to 31.6		O=C(N1CCC(c2cc(Cl)cc3[nH]ncc23)CC1)C1(O)CC1 [Compound 195]
	< 3.16			3.24 to 31.6		C[C@@H]1CN(S(C)(=O)=O)CCN1c1cc(Cl)cc2[nH]ncc12 [Compound 197]
	< 3.16			3.24 to 31.6		C[C@H]1CN(S(C)(=O)=O)CCN1c1cc(Cl)cc2[nH]ncc12 [Compound 200]
	3.24 to 31.6			32.4 to 100		CC(=O)N1CC2CC1CN2c1cc(Cl)cc2[nH]ncc12 (stereo not shown) [Compound 201]
	< 3.16			32.4 to 100		CS(=O)(=O)N1CC2CC1CN2c1cc(Cl)cc2[nH]ncc12 (stereo not shown) [Compound 202]
	< 3.16			3.24 to 31.6		CS(=O)(=O)NC1CCC(c2cc(Cl)cc3[nH]ncc23)CC1 (stereo not shown) [Compound 203]
	< 3.16			> 100		O=C(C1COC1)N1CCN(c2cc(Cl)cc3[nH]ncc23)CC1 [Compound 204]
	< 3.16			> 100		O=C(C1COC1)N1CCC(c2cc(Cl)cc3[nH]ncc23)CC1 [Compound 205]
	3.24 to 31.6			> 100		CS(=O)(=O)N1CCC(c2cc(N3CCOCC3)cc3[nH]ncc23)CC1 [Compound 206]
	< 3.16			3.24 to 31.6		C[C@@H]1CN(S(C)(=O)=O)CCN1c1cc(C(F)(F)F)cc2[nH]ncc12 [Compound 208]
	< 3.16			3.24 to 31.6	> 100	CS(=O)(=O)Nc1ccc(-c2cc(Cl)cc3[nH]ncc23)cc1 [Compound 220]
	3.24 to 31.6			32.4 to 100	> 100	CS(=O)(=O)N1CCN(c2cc(OC(F)(F)F)cc3[nH]ncc23)CC1 [Compound 221]
	3.24 to 31.6			32.4 to 100	3.24 to 31.6	CC(=O)N1CCC(c2cc(C(C)C)cc3[nH]ncc23)CC1 [Compound 222]
	3.24 to 31.6			32.4 to 100	3.24 to 31.6	CC(C)c1cc(C2CCN(S(C)(=O)=O)CC2)c2cn[nH]c2c1 [Compound 223]
	< 3.16			32.4 to 100	32.4 to 100	O=C1NC2(CCO1)CCN(c1cc(Cl)cc3[nH]ncc13)CC2 [Compound 224]
	3.24 to 31.6			3.24 to 31.6	3.24 to 31.6	CN(C)C(=O)C1CCN(c2cc(Cl)cc3[nH]ncc23)CC1 [Compound 225]
	3.24 to 31.6			32.4 to 100	> 100	CS(=O)(=O)NC1CCCN(c2cc(Cl)cc3[nH]ncc23)C1 (stereo not shown) [Compound 229]
	< 3.16			32.4 to 100	> 100	CS(=O)(=O)N1CC2CCC1CN2c1cc(Cl)cc2[nH]ncc12 (stereo not shown) [Compound 230]
	< 3.16			3.24 to 31.6	32.4 to 100	CC(=O)N1CC2CCC1CN2c1cc(Cl)cc2[nH]ncc12 (stereo not shown) [Compound 233]
	< 3.16			32.4 to 100	3.24 to 31.6	COC(=O)C1CCN(c2cc(Cl)cc3[nH]ncc23)CC1 [Compound 234]

IC50 (IDO [1]) [µM]	IC50 (TDO; 500 μM L-tryptophan) [µM]	IC50 (TDO) [µM]	IC50 (IDO [2]; SKOV3 cells, IDO induced by 500 ng/ml IFN-γ) [µM]	IC50 (IDO [2]; [3]) [µM]	IC50 (IDO [1]; 17 minutes, room temperature) [µM]	SMILES
	< 3.16			3.24 to 31.6	> 100	Clc1cc(N2CCC(c3ncc[nH]3)CC2)c2cn[nH]c2c1 [Compound 235]
	32.4 to 100			32.4 to 100	> 100	CC(C)NC(=O)c1cc(Cl)cc2[nH]ncc12 [Compound 236]
	32.4 to 100			32.4 to 100	> 100	O=C(NCc1ccccc1)c1cc(Cl)cc2[nH]ncc12 [Compound 237]
	3.24 to 31.6			32.4 to 100	> 100	CC(C)CNC(=O)c1cc(Cl)cc2[nH]ncc12 [Compound 238]
	< 3.16			3.24 to 31.6	32.4 to 100	CN(c1ccc(-c2cc(Cl)cc3[nH]ncc23)cc1)S(C)(=O)=O [Compound 239]
	< 3.16			3.24 to 31.6	> 100	COC(=O)c1ccc(-c2cc(Cl)cc3[nH]ncc23)cc1 [Compound 240]
	3.24 to 31.6			3.24 to 31.6	> 100	CNc1ccc(-c2cc(Cl)cc3[nH]ncc23)cn1 [Compound 241]
	3.24 to 31.6			32.4 to 100	> 100	CN(C1CCCN(c2cc(Cl)cc3[nH]ncc23)C1)S(C)(=O)=O (stereo not shown) [Compound 242]
	< 3.16			3.24 to 31.6	32.4 to 100	CN(C1CCN(c2cc(Cl)cc3[nH]ncc23)C1)S(C)(=O)=O (stereo not shown) [Compound 243]
	32.4 to 100			32.4 to 100	> 100	CC(=O)N1CCN(c2cc(OC(F)(F)F)cc3[nH]ncc23)CC1 [Compound 244]
	< 3.16			3.24 to 31.6	3.24 to 31.6	CN1C(=O)CCC12CCN(c1cc(Cl)cc3[nH]ncc13)CC2 [Compound 245]
	< 3.16			3.24 to 31.6	3.24 to 31.6	CC(=O)N(C)c1ccc(-c2cc(Cl)cc3[nH]ncc23)cc1 [Compound 248]
	< 3.16			> 100	> 100	O=C(O)c1ccc(-c2cc(Cl)cc3[nH]ncc23)cc1 [Compound 253]
	< 3.16			3.24 to 31.6	32.4 to 100	Cc1cc(-c2cc(Cl)cc3[nH]ncc23)ccc1S(C)(=O)=O [Compound 254]
	> 100			3.24 to 31.6	> 100	O=C(NCC1CCCCC1)c1cc(Cl)cc2[nH]ncc12 [Compound 258]
	32.4 to 100			> 100	> 100	CCNC(=O)c1cc(Cl)cc2[nH]ncc12 [Compound 261]
	> 100			3.24 to 31.6	> 100	CC(C)COc1cccc2[nH]ncc12 [Compound 262]
	3.24 to 31.6			3.24 to 31.6	3.24 to 31.6	CN(C)C(=O)C1CCN(c2cc(Cl)cc3[nH]ncc23)C1 (stereo not shown) [Compound 263]
	< 3.16			3.24 to 31.6	3.24 to 31.6	CC(=O)NCC1CCN(c2cc(Cl)cc3[nH]ncc23)CC1 [Compound 270]
	3.24 to 31.6			32.4 to 100	> 100	O=C(c1cc(Cl)cc2[nH]ncc12)N1CCCCC1 [Compound 274]
	32.4 to 100			32.4 to 100	> 100	CC(=O)N1CCC(c2cc(OC(F)(F)F)cc3[nH]ncc23)CC1 [Compound 275]
	< 3.16			3.24 to 31.6	> 100	CC(=O)NCc1ccc(-c2cc(Cl)cc3[nH]ncc23)cc1 [Compound 276]
	< 3.16			3.24 to 31.6	> 100	CS(=O)(=O)NCc1ccc(-c2cc(Cl)cc3[nH]ncc23)cc1 [Compound 292]
	< 3.16			32.4 to 100	> 100	OC(c1cc(Cl)cc2[nH]ncc12)C1CCCCC1 (stereo not shown) [Compound 293]

Reference: patent publication US10590086B2, “Pharmaceutical compound” (IOmet Pharma Ltd., priority 2014, dated 2020)
